Test results reported in paper PMC2990605 (British Journal of Cancer, 2010).
Entries after “also recorded” stand apart in the source; their conditions may differ.

What was measured:
[1] = tested on: human promyelocytic leukaemia cell line HL-60; design: method as in Krige et al, 2008; conditions: ref Krige et al, 2008; cited from earlier work
transformed cells = tested on: transformed cells; design: method as in Krige et al, 2008; conditions: in vitro and in vivo experiments; ref Krige et al, 2008; cited from earlier work
cancer cell lines = tested on: cancer cell lines; design: method as in Jenkins et al, 2007; Moore et al, 2009; conditions: wide range of cancer cell lines in vitro; ref Jenkins et al, 2007; Moore et al, 2009; cited from earlier work
[2] = Plasma pharmacokinetics of tosedostat, CHR-79888 and paclitaxel (LC-MS/MS, noncompartmental); conditions: for AUC(0-t) / Cmax / Tmax / half-life / Vd/F: human, oral, mean (±s.e.m.); for AUC(0-t): AUC0−t; for half-life: T½; for Vd/F: Vz/F
Method: On day 21, samples were taken until 8 h post-dose; the day 22 predose sample was used as the 24 h sample of day 21. […] Peak plasma concentrations (Cmax), overall drug exposure (AUC), and terminal plasma half-life (t½) were calculated using noncompartmental methods using WinNonlin Professional software (version 4.1, Pharsight Corporation, St Louis, MO, USA). Pharmacokinetics analysis, with reference to possible interactions, was descriptive.

[3] = tested on: advanced solid malignancies; test: Antitumour activity, Response Evaluation Criteria in Solid Tumors; format: in vivo, patients; conditions: tosedostat with paclitaxel
Method: Response was evaluated according to Response Evaluation Criteria in Solid Tumors ([Therasse et al, 2000]) after every second cycle.

[4] = cited from earlier work
relapsed/refractory AML = tested on: relapsed/refractory AML; design: method as in Ossenkoppele et al, 2009; Reid et al, 2009; conditions: tosedostat monotherapy, ref Ossenkoppele et al, 2009, Reid et al; cited from earlier work
[5] = Dose-limiting toxicity and maximum tolerated dose of the paclitaxel/tosedostat combination; format: in vivo, patients
Method: The starting dose of CHR-2797 was 90 mg daily, below the MTD.
Toxicity was evaluated according to common toxicity criteria for adverse events (CTCAEv3.0). The MTD was defined as the dose level(s) at which at least two out of six patients developed DLT.

[6] = plasma, 90 mg, cohort 1: CHR-2797 90 mg, paclitaxel 135 mg m^−2, day 21, tosedostat without paclitaxel, plasma
[7] = plasma, 90 mg, cohort 2: CHR-2797 90 mg, paclitaxel 175 mg m^−2, day 21, tosedostat without paclitaxel, plasma
[8] = plasma, 130 mg, cohort 3: CHR-2797 130 mg, paclitaxel 175 mg m^−2, day 21, tosedostat without paclitaxel, plasma
[9] = plasma, 180 mg, cohort 4: CHR-2797 180 mg, paclitaxel 175 mg m^−2, day 21, tosedostat without paclitaxel, plasma
[10] = plasma, cohort 1: CHR-2797 90 mg, paclitaxel 135 mg m^−2, day 22, tosedostat in combination with paclitaxel, plasma
[11] = plasma, cohort 2: CHR-2797 90 mg, paclitaxel 175 mg m^−2, day 22, tosedostat in combination with paclitaxel, plasma
[12] = plasma, cohort 3: CHR-2797 130 mg, paclitaxel 175 mg m^−2, day 22, tosedostat in combination with paclitaxel, plasma
[13] = plasma, cohort 4: CHR-2797 180 mg, paclitaxel 175 mg m^−2, day 22, tosedostat in combination with paclitaxel, plasma

SMILES: CC(C)C[C@@H](C(=O)N[C@H](C(=O)OC1CCCC1)c1ccccc1)[C@H](O)C(=O)NO [tosedostat]
- gene expression analysis, transcriptional response [1]: transcriptional response to the drug indicative of amino acid depletion
- phosphorylation of mTOR substrates [1]: inhibited
- protein synthesis [1]: reduced
- selectivity (transformed cells): selectivity for transformed over nontransformed cells
- combination with chemotherapeutic agents, antiproliferative effects (cancer cell lines): synergises
- effect of paclitaxel coadministration on Cmax, tmax and t½ ([2]; day 21 versus day 22): tendency for a decreased Cmax and an increased tmax and t½
- effect of paclitaxel coadministration on overall exposure (AUC0−t) ([2]; day 21 versus day 22): unaffected by paclitaxel administration; also recorded: unaffected by paclitaxel coadministration
- AUC(0-t) [2, 6]: 1140 ng·h/mL
- AUC(0-t) [2, 7]: 1890 ng·h/mL
- Cmax [2, 6]: 522 ng/mL
- Cmax [2, 7]: 969 ng/mL
- Tmax [2, 6]: 1.2 h
- Tmax [2, 7]: 1.2 h
- half-life [2, 6]: 72 min
- half-life [2, 7]: 78 min
- Vd/F [2, 6]: 179 L
- Vd/F [2, 7]: 72 L
- AUC(0-t) [2, 8]: 1920 ng·h/mL
- Cmax [2, 8]: 880 ng/mL
- Tmax [2, 8]: 1.7 h
- half-life [2, 8]: 66 min
- Vd/F [2, 8]: 112 L
- AUC(0-t) [2, 9]: 2520 ng·h/mL
- Cmax [2, 9]: 1400 ng/mL
- Tmax [2, 9]: 1.7 h
- half-life [2, 9]: 66 min
- Vd/F [2, 9]: 123 L
- AUC(0-t) [2, 10]: 896 ng·h/mL
- AUC(0-t) [2, 11]: 1410 ng·h/mL
- AUC(0-t) [2, 12]: 1400 ng·h/mL
- AUC(0-t) [2, 13]: 1710 ng·h/mL
- Cmax [2, 10]: 289 ng/mL
- Cmax [2, 11]: 527 ng/mL
- Cmax [2, 12]: 615 ng/mL
- Cmax [2, 13]: 399 ng/mL
- Tmax [2, 10]: 4 h
- Tmax [2, 11]: 2 h
- Tmax [2, 12]: 1.3 h
- Tmax [2, 13]: 4 h
- half-life [2, 10]: 144 min
- half-life [2, 11]: 186 min
- half-life [2, 12]: 240 min
- half-life [2, 13]: 186 min
- Vd/F [2, 10]: 258 L
- Vd/F [2, 11]: 276 L
- Vd/F [2, 12]: 587 L
- Vd/F [2, 13]: 471 L
- PK interaction between tosedostat and paclitaxel ([2]; in vivo): no PK interaction
- overall exposure versus dose ([2]; tosedostat 90–180 mg, plasma): increased in a dose proportional manner
- response duration of PR ([3]; patient with malignant melanoma): 7.2 months
- response duration of PR ([3]; patient with squamous cell non-small-cell lung cancer): 7.1 months
- response duration of PR ([3]; patient with squamous-cell carcinoma of the oesophagus): 1.5 months
- stable disease lasting >3 months, patients [3]: 12
- Median (95% CI) duration of s.d. ([3]; 12 patients): 5.6 (3–6.5) months
- partial response, patients ([3]; 21 assessable patients): 3
- stable disease, % of patients ([3]; 21 assessable patients): 57%
- stable disease, patients ([3]; 21 assessable patients): 12
- partial response, % of patients ([3]; 21 assessable patients, confirmed after ⩾4 weeks): 14%
- effect on platelets ([4]; single agent dose escalation studies, ref Ossenkoppele et al, 2009, Reid et al): platelet suppressive effect
- most commonly reported AEs ([4]; single agent oral daily dosing, ref Reid et al, 2009): fatigue, thrombocytopenia, peripheral oedema and diarrhoea
- Dose-limiting toxicities, patients ([4]; single agent tosedostat 320 mg, ref Reid et al, 2009): two of four patients
- MTD with single agent tosedostat ([4]; solid tumour patients treated for at least 28 days, oral daily, ref Reid et al, 2009): 240 mg
- response rate (relapsed/refractory AML): 31.4%
- DLTs observed in the study ([5]; all cohorts, 22 patients, tosedostat with paclitaxel): only one DLT observed in 22 patients
- DLT ([5]; cohort 5: tosedostat 180 mg combined with paclitaxel 175 mg m^−2, one patient, first 21 days): One DLT (grade 3 dyspnoea); also recorded: CTC grade 3 dyspnoea, with grade 2 fever and persistent grade 3 urinary tract infection
- grade 3/4 toxicity in dose-escalation phase ([5]; cohort 6: 175 mg m^−2 paclitaxel, 240 mg tosedostat, three patients): without any grade 3/4 toxicity
- MTD of tosedostat combined with paclitaxel ([5]; tosedostat 90–240 mg daily, paclitaxel 135–175 mg m^−2 every 3 weeks): No formal MTD was determined; also recorded: Formal MTD was never reached; also recorded: not reached
